Assay results from ChEMBL document CHEMBL1126772, “Activated ketone based inhibitors of human renin” (J Med Chem, 1993).
Square brackets hold non-standard residues; d marks the D form. Peptide text beside a SMILES is read from it. * marks the point of attachment. ξ: configuration not given here. ξCha = NC(CC1CCCCC1)C(=O)O; Boc = CC(C)(C)OC(=O)*; CF3 = FC(F)(F)*

target: T1, Cathepsin D (Bos taurus, UniProt P80209); experiment: In vitro inhibitory activity against bovine cathepsin D; settings: read-out: I50
T1 sequence (P80209 whole entry): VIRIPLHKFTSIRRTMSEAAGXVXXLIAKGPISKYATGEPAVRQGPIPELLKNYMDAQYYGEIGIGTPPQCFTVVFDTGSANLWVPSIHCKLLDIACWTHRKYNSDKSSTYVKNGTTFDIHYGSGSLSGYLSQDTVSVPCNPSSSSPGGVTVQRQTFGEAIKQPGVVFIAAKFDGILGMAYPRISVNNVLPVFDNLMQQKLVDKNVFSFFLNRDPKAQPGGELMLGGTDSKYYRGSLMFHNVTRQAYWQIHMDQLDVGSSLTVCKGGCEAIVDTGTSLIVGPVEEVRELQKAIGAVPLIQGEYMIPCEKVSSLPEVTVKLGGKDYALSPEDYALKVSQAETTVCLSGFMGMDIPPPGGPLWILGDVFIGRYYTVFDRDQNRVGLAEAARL

Q: With `CCOC(=O)C(=O)C(CC1CCCCC1)NC(=O)[C@H](CC(C)C)NC(=O)[C@H](Cc1ccccc1)NC(=O)OC(C)(C)C` (stereo partly drawn) as the compound, how does the IC50 read?
A: Its IC50 is 1.3 µM.

target: Pepsin A (Sus scrofa, UniProt P00791); experiment: In vitro inhibitory activity against aspartic proteinases pepsin from porcine; settings: read-out: I50
Sequence (P00791 whole entry): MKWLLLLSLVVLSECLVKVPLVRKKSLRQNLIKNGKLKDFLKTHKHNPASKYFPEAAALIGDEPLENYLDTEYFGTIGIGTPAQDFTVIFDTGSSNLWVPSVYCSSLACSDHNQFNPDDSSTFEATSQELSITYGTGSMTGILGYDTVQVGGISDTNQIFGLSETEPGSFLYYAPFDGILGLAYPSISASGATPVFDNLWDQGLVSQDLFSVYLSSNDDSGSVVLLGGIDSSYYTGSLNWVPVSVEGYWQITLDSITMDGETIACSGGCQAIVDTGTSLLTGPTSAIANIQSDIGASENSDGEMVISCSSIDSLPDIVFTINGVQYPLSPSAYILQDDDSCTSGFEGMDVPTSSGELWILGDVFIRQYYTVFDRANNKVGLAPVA

Q: With `CCOC(=O)C(=O)C(CC1CCCCC1)NC(=O)[C@H](CC(C)C)NC(=O)[C@H](Cc1ccccc1)NC(=O)OC(C)(C)C` (stereo partly drawn) as the compound, how does the IC50 read?
A: The IC50 was 2.7 µM.

target: T2, Renin (Homo sapiens, UniProt P00797); experiment: In vitro inhibitory potency against human kidney renin.; type: tissue-based; settings: read-out: I50
T2 sequence (P00797 whole entry): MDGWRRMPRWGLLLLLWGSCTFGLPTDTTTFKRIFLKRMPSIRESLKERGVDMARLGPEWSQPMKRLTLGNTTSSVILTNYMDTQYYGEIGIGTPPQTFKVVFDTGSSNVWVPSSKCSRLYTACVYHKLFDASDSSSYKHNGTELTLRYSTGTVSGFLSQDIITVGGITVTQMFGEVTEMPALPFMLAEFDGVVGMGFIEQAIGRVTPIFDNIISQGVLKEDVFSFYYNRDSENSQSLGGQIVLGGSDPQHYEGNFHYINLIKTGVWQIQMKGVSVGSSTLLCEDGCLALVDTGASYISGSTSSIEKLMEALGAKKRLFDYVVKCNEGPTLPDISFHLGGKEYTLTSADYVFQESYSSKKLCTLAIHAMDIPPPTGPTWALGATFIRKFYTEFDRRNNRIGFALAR

Q: Which IC50 does the source give for `CCOC(=O)[C@@H](O)[C@H](CC1CCCCC1)NC(=O)[C@H](CC(C)C)NC(=O)[C@H](Cc1ccccc1)NC(=O)OC(C)(C)C` here?
A: Its IC50 is 0.11 µM.

Q: For `CC(C)C[C@H](NC(=O)[C@H](Cc1ccccc1)NC(=O)OC(C)(C)C)C(=O)NC(CC1CCCCC1)C(=O)C(=O)O` (stereo partly drawn), which IC50 is on record?
A: Its IC50 is 64 µM.

Q: `CC(C)C[C@H](NC(=O)[C@H](Cc1ccccc1)NC(=O)OC(C)(C)C)C(=O)N[C@@H](CC1CCCCC1)C(C)O` (stereo partly drawn) was tested. Which IC50 did it give?
A: Its IC50 is 3.2 µM.

Q: Which IC50 does the source give for `CCCC(=O)C(=O)[C@H](CC1CCCCC1)NC(=O)[C@H](CC(C)C)NC(=O)[C@H](Cc1ccccc1)NC(=O)C1CCCC1` here?
A: The IC50 was 0.028 µM.

Q: With `CCCC(=O)[C@H](O)[C@H](CC1CCCCC1)NC(=O)[C@H](Cc1c[nH]cn1)NC(=O)OC(C)(C)C` as the compound, how does the IC50 read?
A: Its IC50 is 420 µM.

Q: For `CCOC(=O)C(=O)C(CC1CCCCC1)NC(=O)[C@H](CC(C)C)NC(=O)OCc1ccccc1` (stereo partly drawn), which IC50 is on record?
A: Its IC50 is 52 µM.

Q: With `CCCC(=O)[C@H](O)[C@H](CC1CCCCC1)NC(=O)[C@H](CC(C)C)NC(=O)[C@H](Cc1ccccc1)NC(=O)C1CCCC1` as the compound, how does the IC50 read?
A: The IC50 was 0.014 µM.

Q: Which IC50 does the source give for `CCOC(=O)C(=O)[C@H](CC1CCCCC1)NC(=O)[C@H](CC(C)C)NC(=O)[C@@H](CC(=O)N1CCOCC1)Cc1ccccc1` here?
A: The IC50 was 0.0041 µM.

Q: How did the IC50 turn out when `CC(C)C[C@H](NC(=O)[C@H](Cc1ccccc1)NC(=O)OC(C)(C)C)C(=O)NC(CC1CCCCC1)C(=O)C(F)(F)F` (stereo partly drawn) (Boc-Phe-Leu-[ξCha]-CF3) was run?
A: The IC50 was 0.25 µM.

Q: With `CC(C)C[C@H](NC(=O)[C@H](Cc1ccccc1)NC(=O)OC(C)(C)C)C(=O)NC(CC1CCCCC1)C(O)C(F)(F)F` (stereo partly drawn) as the compound, how does the IC50 read?
A: The IC50 was 4 µM.

Q: With `CCCC(=O)[C@H](O)[C@H](CC1CCCCC1)NC(=O)[C@H](CC(C)C)NC(=O)[C@H](Cc1ccccc1)NC(=O)OC(C)(C)C` as the compound, how does the IC50 read?
A: The IC50 was 0.023 µM.

Q: For `CCOC(=O)[C@H](O)[C@H](CC1CCCCC1)NC(=O)[C@H](CC(C)C)NC(=O)[C@H](Cc1ccccc1)NC(=O)OC(C)(C)C`, which IC50 is on record?
A: The IC50 was 0.0053 µM.

Q: Which IC50 does the source give for `CCOC(=O)C(=O)C(CC1CCCCC1)NC(=O)[C@H](CC(C)C)NC(=O)[C@H](Cc1ccccc1)NC(=O)OC(C)(C)C` (stereo partly drawn) here?
A: Its IC50 is 0.015 µM.

Q: `CCCC(=O)C(=O)[C@H](CC1CCCCC1)NC(=O)[C@H](CC(C)C)NC(=O)[C@H](Cc1ccccc1)NC(=O)OC(C)(C)C` was tested. Which IC50 did it give?
A: Its IC50 is 0.052 µM.

Q: With `CCOC(=O)[C@H](O)[C@H](CC1CCCCC1)NC(=O)[C@H](CC(C)C)NC(=O)[C@@H](CC(=O)N1CCOCC1)Cc1ccccc1` as the compound, how does the IC50 read?
A: The IC50 was 0.0047 µM.

Q: `CCCC1([C@H](O)[C@H](CC2CCCCC2)NC(=O)[C@H](CC(C)C)NC(=O)[C@H](Cc2ccccc2)NC(=O)OC(C)(C)C)SCCCS1` was tested. Which IC50 did it give?
A: Its IC50 is 2.2 µM.
